Measurements from ChEMBL document CHEMBL1201862, “PubChem BioAssay data set” (2004).
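These data come from cells grown in 96-well plates and exposed to compound for 48 hours at five concentrations. Abbreviation: GI50, concentration required for 50% inhibition of growth.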 Activity calls are given as the source filed them. Rule as the data show it: active = GI50 up to about 1.1 µM and inactive = higher.

How the values were obtained:
Test in all cases: growth of human tumour cells (NCI), 48 h
[1] = system: HCT-116
[2] = system: HCT-15
[3] = system: HT-29
[4] = system: IGROV-1
[5] = system: K562
[6] = system: MDA-MB-231
[7] = system: MOLT-4
[8] = system: Malme-3M
[9] = system: NCI-H23
[10] = system: NCI-H522
[11] = system: OVCAR-8
[12] = system: PC-3
[13] = system: RPMI-8226
[14] = system: SF-295
[15] = system: SK-MEL-28
[16] = system: SK-MEL-2
[17] = system: SK-MEL-5
[18] = system: SNB-19
[19] = system: U-251
[20] = system: MDA-MB-435

Row | Compound | GI50 [1] | GI50 [2] [µM] | GI50 [3] | GI50 [4] | GI50 [5] | GI50 [6] | GI50 [7] | GI50 [8] | GI50 [9] | GI50 [10] | GI50 [11] | GI50 [12] | GI50 [13] | GI50 [14] | GI50 [15] | GI50 [16] | GI50 [17] | GI50 [18] | GI50 [19] | GI50 [20]
1 | CC(C)(C)CNC(=O)NCn1cc(-c2ccccc2)nn1 | > 100 µM (inactive) | > 100 | > 100 µM (inactive) | > 100 µM (inactive) | > 100 µM (inactive) | > 100 µM (inactive) | > 100 µM (inactive) | > 100 µM (inactive) | > 100 µM (inactive) | > 100 µM (inactive) | > 100 µM (inactive) | > 100 µM (inactive) | > 100 µM (inactive) | > 100 µM (inactive) | > 100 µM (inactive) | > 100 µM (inactive) | > 100 µM (inactive) | > 100 µM (inactive) | > 100 µM (inactive) | –
2 | Cc1nc2[nH]ccn2c(=O)c1CCO | > 10 µM (inactive) | > 10 | > 10 µM (inactive) | > 10 µM (inactive) | > 10 µM (inactive) | > 10 µM (inactive) | > 10 µM (inactive) | > 10 µM (inactive) | > 10 µM (inactive) | – | > 10 µM (inactive) | > 10 µM (inactive) | > 10 µM (inactive) | > 10 µM (inactive) | > 10 µM (inactive) | – | > 10 µM (inactive) | > 10 µM (inactive) | > 10 µM (inactive) | > 10 µM (inactive)
3 | CC(C)c1ccccc1SC1CC(=O)CC(Sc2ccccc2C(C)C)C12O[C@H](c1ccccc1)[C@@H](c1ccccc1)O2 (stereo not given in full) | 32.7 µM (inactive) | 31.7 | 58.5 µM (inactive) | 34.1 µM (inactive) | – | 34.8 µM (inactive) | 23.4 µM (inactive) | – | 36.8 µM (inactive) | – | 35.4 µM (inactive) | 58.9 µM (inactive) | 17.3 µM (inactive) | > 100 µM (inactive) | 38.5 µM (inactive) | 35.6 µM (inactive) | 35.6 µM (inactive) | > 100 µM (inactive) | 20.3 µM (inactive) | 22.6 µM (inactive)
4 | Fc1nc(F)nc(-c2c3ccccc3c3n2CCS3)n1 | 65.5 µM (inactive) | 54.8 | > 100 µM (inactive) | > 100 µM (inactive) | 47.5 µM (inactive) | – | > 10 µM (inactive) | > 100 µM (inactive) | > 100 µM (inactive) | 47.2 µM (inactive) | – | – | 33 µM (inactive) | 53.3 µM (inactive) | > 100 µM (inactive) | 44.5 µM (inactive) | 50.1 µM (inactive) | > 100 µM (inactive) | 29 µM (inactive) | –
